Measurements published in patent US20250212879A1, “HERBICIDAL COMPOUNDS” (SYNGENTA CROP PROTECTION AG, priority 2022, published 2025).

Assays:
Format in all cases: in vivo
Details in all cases: 250 g/ha, evaluated after 13 days, 100=total damage to plant, 0=no damage to plant
Lolium perenne (LOLPE) [1] = test: Pre-emergence biological efficacy, LOLPE
Experimental: (§1) Seeds of weeds and/or crops were sown in standard soil in pots (Amaranthus palmeri (AMAPA), Lolium perenne (LOLPE), Euphorbia heterophylla (EPHHL), Setaria faberi (SETFA), Echinochloa crus-galli (ECHCG), Ipomoea hederacea (IPOHE)). After cultivation for one day under controlled conditions in a glasshouse (at 24/19° C., day/night; 16 hours light), the plants were sprayed with an aqueous spray solution derived from the formulation of the technical active ingredient in a small amount of acetone and a special solvent and emulsifier mixture referred to as IF50 (11.12% Emulsogen EL360 TM+44.44% N-methylpyrrolidone+44.44% Dowanol DPM glycol ether), to create a 50 g/l solution which was then diluted using 0.2% Genapol X080 as diluent to give the desired final dose of test compound. Compounds were applied at a 250 g/ha unless otherwise stated. The test plants were then grown under controlled conditions in the glasshouse (at 24/18° C., day/night; 15 hours light; 50% humidity) and watered twice daily. After 13 days the test was evaluated (100=total damage to plant; 0=no damage to plant).

[2] = tested on: Echinochloa crus-galli (ECHCG); test: Post-emergence biological efficacy, ECHCG
Experimental: as §1, with “(AMAPA), (CHEAL), Euphorbia heterophylla (EPHHL), Ipomoea hederacea (IPOHE), Eleusine indica (ELEIN),” for “(AMAPA),”, “Digitaria sanguinalis (DIGSA),” for “Euphorbia heterophylla (EPHHL),”, “(ECHCG)).” for “(ECHCG), Ipomoea hederacea (IPOHE)).”, “14 days” for “one day”, “XO80” for “X080”

[3] = tested on: Echinochloa crus-galli (ECHCG); test: Pre-emergence biological efficacy, ECHCG
Experimental: as §1

Setaria faberi (SETFA) [4] = test: Pre-emergence biological efficacy, SETFA
Experimental: as §1

Lolium perenne (LOLPE) [5] = test: Post-emergence biological efficacy, LOLPE
Experimental: as §1, with “(AMAPA), (CHEAL), Euphorbia heterophylla (EPHHL), Ipomoea hederacea (IPOHE), Eleusine indica (ELEIN),” for “(AMAPA),”, “Digitaria sanguinalis (DIGSA),” for “Euphorbia heterophylla (EPHHL),”, “(ECHCG)).” for “(ECHCG), Ipomoea hederacea (IPOHE)).”, “14 days” for “one day”, “XO80” for “X080”

CHEAL = test: Post-emergence biological efficacy, CHEAL
Experimental: as §1, with “(AMAPA), (CHEAL), Euphorbia heterophylla (EPHHL), Ipomoea hederacea (IPOHE), Eleusine indica (ELEIN),” for “(AMAPA),”, “Digitaria sanguinalis (DIGSA),” for “Euphorbia heterophylla (EPHHL),”, “(ECHCG)).” for “(ECHCG), Ipomoea hederacea (IPOHE)).”, “14 days” for “one day”, “XO80” for “X080”

[6] = tested on: Ipomoea hederacea (IPOHE); test: Post-emergence biological efficacy, IPOHE
Experimental: as §1, with “(AMAPA), (CHEAL), Euphorbia heterophylla (EPHHL), Ipomoea hederacea (IPOHE), Eleusine indica (ELEIN),” for “(AMAPA),”, “Digitaria sanguinalis (DIGSA),” for “Euphorbia heterophylla (EPHHL),”, “(ECHCG)).” for “(ECHCG), Ipomoea hederacea (IPOHE)).”, “14 days” for “one day”, “XO80” for “X080”

Setaria faberi (SETFA) [7] = test: Post-emergence biological efficacy, SETFA
Experimental: as §1, with “(AMAPA), (CHEAL), Euphorbia heterophylla (EPHHL), Ipomoea hederacea (IPOHE), Eleusine indica (ELEIN),” for “(AMAPA),”, “Digitaria sanguinalis (DIGSA),” for “Euphorbia heterophylla (EPHHL),”, “(ECHCG)).” for “(ECHCG), Ipomoea hederacea (IPOHE)).”, “14 days” for “one day”, “XO80” for “X080”

[8] = tested on: Ipomoea hederacea (IPOHE); test: Pre-emergence biological efficacy, IPOHE
Experimental: as §1

Eleusine indica (ELEIN) = test: Post-emergence biological efficacy, ELEIN
Experimental: as §1, with “(AMAPA), (CHEAL), Euphorbia heterophylla (EPHHL), Ipomoea hederacea (IPOHE), Eleusine indica (ELEIN),” for “(AMAPA),”, “Digitaria sanguinalis (DIGSA),” for “Euphorbia heterophylla (EPHHL),”, “(ECHCG)).” for “(ECHCG), Ipomoea hederacea (IPOHE)).”, “14 days” for “one day”, “XO80” for “X080”

[9] = tested on: Euphorbia heterophylla (EPHHL); test: Pre-emergence biological efficacy, EPHHL
Experimental: as §1

[10] = tested on: Amaranthus palmeri (AMAPA); test: Pre-emergence biological efficacy, AMAPA
Experimental: as §1

[11] = tested on: Euphorbia heterophylla (EPHHL); test: Post-emergence biological efficacy, EPHHL
Experimental: as §1, with “(AMAPA), (CHEAL), Euphorbia heterophylla (EPHHL), Ipomoea hederacea (IPOHE), Eleusine indica (ELEIN),” for “(AMAPA),”, “Digitaria sanguinalis (DIGSA),” for “Euphorbia heterophylla (EPHHL),”, “(ECHCG)).” for “(ECHCG), Ipomoea hederacea (IPOHE)).”, “14 days” for “one day”, “XO80” for “X080”

[12] = tested on: Digitaria sanguinalis (DIGSA); test: Post-emergence biological efficacy, DIGSA
Experimental: as §1, with “(AMAPA), (CHEAL), Euphorbia heterophylla (EPHHL), Ipomoea hederacea (IPOHE), Eleusine indica (ELEIN),” for “(AMAPA),”, “Digitaria sanguinalis (DIGSA),” for “Euphorbia heterophylla (EPHHL),”, “(ECHCG)).” for “(ECHCG), Ipomoea hederacea (IPOHE)).”, “14 days” for “one day”, “XO80” for “X080”

[13] = tested on: Amaranthus palmeri (AMAPA); test: Post-emergence biological efficacy, AMAPA
Experimental: as §1, with “(AMAPA), (CHEAL), Euphorbia heterophylla (EPHHL), Ipomoea hederacea (IPOHE), Eleusine indica (ELEIN),” for “(AMAPA),”, “Digitaria sanguinalis (DIGSA),” for “Euphorbia heterophylla (EPHHL),”, “(ECHCG)).” for “(ECHCG), Ipomoea hederacea (IPOHE)).”, “14 days” for “one day”, “XO80” for “X080”

Row | Compound | damage to plant, LOLPE (Lolium perenne (LOLPE) [1]) | damage to plant, ECHCG [2] | damage to plant, ECHCG [3] | damage to plant, SETFA (Setaria faberi (SETFA) [4]) | damage to plant, LOLPE (Lolium perenne (LOLPE) [5]) | damage to plant, CHEAL (CHEAL) | damage to plant, IPOHE [6] | damage to plant, SETFA (Setaria faberi (SETFA) [7]) | damage to plant, IPOHE [8] | damage to plant, ELEIN (Eleusine indica (ELEIN)) | damage to plant, EPHHL [9] | damage to plant, AMAPA [10] | damage to plant, EPHHL [11] | damage to plant, DIGSA [12] | damage to plant, AMAPA [13]
1 | CCOC(=O)C[C@H](C)OC(=O)c1cc(-c2ncc(C(F)(F)F)cc2Cl)ccc1Cl [Compound 1-525 (S-enantiomer), [(1S)-3-ethoxy-1-methyl-3-oxo-propyl] 2-chloro-5-[3-chloro-5-(trifluoromethyl)-2-pyridyl]-benzoate] | 100 | 100 | 100 | 100 | 100 | 100 | 90 | 100 | 70 | 100 | 100 | 100 | 100 | 100 | 100
2 | CCOC(=O)CC(C)OC(=O)c1cc(-c2ncc(C(F)(F)F)cc2Cl)ccc1Cl (stereo not drawn) [Compound 1-525, (3-ethoxy-1-methyl-3-oxo-propyl) 2-chloro-5-[3-chloro-5-(trifluoromethyl)-2-pyridyl]benzoate] | 100 | 100 | 100 | 100 | 100 | 100 | 80 | 100 | 70 | 100 | 100 | 100 | 100 | 100 | 100
3 | CCOC(=O)C[C@@H](C)OC(=O)c1cc(-c2ncc(C(F)(F)F)cc2Cl)c(F)cc1Cl [Compound 2-525 (R-enantiomer), [(1R)-3-ethoxy-1-methyl-3-oxo-propyl] 2-chloro-5-[3-chloro-5-(trifluoromethyl)-2-pyridyl]-4-fluoro-benzoate] | 100 | 100 | 100 | 100 | 100 | 100 | 100 | 100 | 60 | 100 | 100 | 100 | 100 | 100 | 100
4 | CCOC(=O)C[C@H](C)OC(=O)c1cc(-c2ncc(C(F)(F)F)cc2Cl)c(F)cc1Cl [Compound 2-525 (S-enantiomer), [(1S)-3-ethoxy-1-methyl-3-oxo-propyl] 2-chloro-5-[3-chloro-5-(trifluoromethyl)-2-pyridyl]-4-fluoro-benzoate] | 100 | 100 | 100 | 100 | 100 | 100 | 100 | 100 | 100 | 100 | 100 | 100 | 100 | 100 | 100
5 | COC(=O)C[C@H](C)OC(=O)c1nc(-c2ncc(C(F)(F)F)cc2Cl)c(F)cc1Cl [Compound 11-524 (S-enantiomer), [(1S)-3-methoxy-1-methyl-3-oxo-propyl] 3-chloro-6-[3-chloro-5-(trifluoromethyl)-2-pyridyl]-5-fluoro-pyridine-2-carboxylate] | 100 | 100 | 100 | 100 | 100 | 100 | 100 | 100 | 100 | 100 | 100 | 100 | 100 | 100 | 100
